According to article PMC8206213, “An L-2-hydroxyglutarate biosensor based on specific transcriptional regulator LhgR” (Nature Communications, 2021):
Several values for one entry are separate records, joined by “and”; a condition that tells them apart may be missing. Equal values may be shown once.

Legend:
[1] = system: LHGFR0N7C expressed in E. coli BL21(DE3); test: Specificity of LHGFR0N7C expressed in E. coli BL21(DE3), 1 mM compounds; assay type: cell-based; conditions: Supplementary Fig. 13c
Protocol: To characterize the sensitivity and specificity of LHGFR expressed in E. coli BL21(DE3), 90 μL cell suspensions following 8 h carbon starvation were mixed with 10 μL increasing concentrations of L-2-HG or other compounds, and then added into a black 96-well plate (total 100 μL/per well), the fluorescence intensities were determined using an EnSight microplate reader (PerkinElmer, USA) and the following instrument settings: excitation at 430 nm, emission at 485 nm (mTFP) and 528 nm (Venus), time intervals of 5 min, the temperature at 37 °C, and shake at 180 rpm.

LHGFR0N3C [2] = test: Influence of other compounds on the response of purified LHGFR0N3C to L-2-HG; assay type: binding, Pseudomonas putida W619
How it was run: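 Purified L-2-HG biosensors were mixed 3:1 with test compounds in 50 mM Tris-HCl pH 7.4, excited at 430 nm, and the 528 nm (Venus)/485 nm (mTFP) emission was read. Responses were fitted with a Hill model giving apparent Kd and Hill slope.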

LHGFR0N3C [3] = test: Specificity of purified LHGFR0N3C, emission ratio with 240 μM compounds; assay type: binding, Pseudomonas putida W619; conditions: 240 μM compound
LhgO = test: Enzymatic assay of LhgO in crude extracts of P. putida KT2440 derivatives grown on different carbon sources (induction of lhgO under LhgR control); assay type: cell-based, Pseudomonas putida
Protocol: The cells were harvested at mid-log phase, washed twice and resuspended in phosphate-buffered saline (PBS), then lysed by sonication on ice after the addition of 1 mM phenylmethylsulfonyl fluoride (PMSF). […] Protein concentrations of the supernatants were determined using the Bradford protein assay kit (Sangon, China). […] The 800 μL reaction solution contained 0.1 mM […], 0.05 mM DCPIP, 0.2 mM phenazine methosulfate (PMS) in PBS and 40 μL crude extracts.

`O=C(O)CC[C@H](O)C(=O)O` [L-2-HG, L-2-Hydroxyglutarate] was tested, and the “normalized emission ratio of biosensor expressed in E. coli” value (from here on “normalized emission ratio of biosensor”) ([1]; time 0 min) was 1.016 and 1.006 and 1.026, the “normalized emission ratio of biosensor” value ([1]; time 5 min) was 1.0991 and 1.081 and 1.1 and the “normalized emission ratio of biosensor” value ([1]; time 10 min) was 1.206 and 1.179 and 1.184. For the same compound, the “normalized emission ratio of biosensor” value ([1]; time 15 min) was 1.293 and 1.273 and 1.276, the “normalized emission ratio of biosensor” value ([1]; time 20 min) was 1.341 and 1.328 and 1.319 and the “normalized emission ratio of biosensor” value ([1]; time 25 min) was 1.35 and 1.357 and 1.333. For the same compound, the “normalized emission ratio of biosensor” value ([1]; time 30 min) was 1.374 and 1.365 and 1.366, the “normalized emission ratio of biosensor” value ([1]; time 35 min) was 1.386 and 1.367 and 1.374 and the “normalized emission ratio of biosensor” value ([1]; time 40 min) was 1.391 and 1.384 and 1.386. For the same compound, the “normalized emission ratio of biosensor” value ([1]; time 45 min) was 1.414 and 1.39 and 1.389, the “normalized emission ratio of biosensor” value ([1]; time 50 min) was 1.407 and 1.378 and 1.396 and the “normalized emission ratio of biosensor” value ([1]; time 55 min) was 1.415 and 1.39 and 1.4085. The “normalized emission ratio of biosensor” value ([1]; time 60 min) was 1.43 and 1.394 and 1.408, the “normalized emission ratio of biosensor” value ([1]; time 65 min) was 1.417 and 1.4114 and 1.411 and the “normalized emission ratio of biosensor” value ([1]; time 70 min) was 1.41 and 1.402 and 1.422. For the same compound, the “normalized emission ratio of biosensor” value ([1]; time 75 min) was 1.393 and 1.405 and 1.423, the “normalized emission ratio of biosensor” value ([1]; time 80 min) was 1.412 and 1.416 and 1.423 and the “normalized emission ratio of biosensor” value ([1]; time 85 min) was 1.389 and 1.408 and 1.4341. The “normalized emission ratio of biosensor” value ([1]; time 90 min) was 1.404 and 1.406 and 1.429, the “Emission ratio of 528/485” value (LHGFR0N3C [2]; L-2-HG concentration 0.01, in the absence of 2-KG, Suppl. Fig. 9g) was 1.4026 and 1.407 and 1.399 and the “Emission ratio of 528/485” value (LHGFR0N3C [2]; L-2-HG concentration 0.01, in the absence of D-2-HG, Suppl. Fig. 9e) was 1.361 and 1.439 and 1.415. The “Emission ratio of 528/485” value (LHGFR0N3C [2]; L-2-HG concentration 0.01, in the presence of 2-KG, Suppl. Fig. 9g) was 1.363, the “Emission ratio of 528/485” value (LHGFR0N3C [2]; L-2-HG concentration 0.01, in the presence of D-2-HG, Suppl. Fig. 9e) was 1.406 and 1.467 and 1.446 and the “Emission ratio of 528/485” value (LHGFR0N3C [2]; L-2-HG concentration 0.1, in the absence of D-2-HG, Suppl. Fig. 9e) was 1.367 and 1.431 and 1.424. For the same compound, the “Emission ratio of 528/485” value (LHGFR0N3C [2]; L-2-HG concentration 0.1, in the presence of D-2-HG, Suppl. Fig. 9e) was 1.407 and 1.464 and 1.416, the “Emission ratio of 528/485” value (LHGFR0N3C [2]; L-2-HG concentration 0.2, in the absence of D-2-HG, Suppl. Fig. 9e) was 1.3539 and 1.456 and 1.407 and the “Emission ratio of 528/485” value (LHGFR0N3C [2]; L-2-HG concentration 0.2, in the presence of D-2-HG, Suppl. Fig. 9e) was 1.417 and 1.4607 and 1.422. For the same compound, the “Emission ratio of 528/485” value (LHGFR0N3C [2]; L-2-HG concentration 1, in the absence of D-2-HG, Suppl. Fig. 9e) was 1.3919 and 1.421 and 1.443, the “Emission ratio of 528/485” value (LHGFR0N3C [2]; L-2-HG concentration 1, in the presence of D-2-HG, Suppl. Fig. 9e) was 1.445 and 1.477 and 1.4328 and the “Emission ratio of 528/485” value (LHGFR0N3C [2]; L-2-HG concentration 2, in the absence of D-2-HG, Suppl. Fig. 9e) was 1.397 and 1.479 and 1.464. The “Emission ratio of 528/485” value (LHGFR0N3C [2]; L-2-HG concentration 2, in the presence of D-2-HG, Suppl. Fig. 9e) was 1.472 and 1.492 and 1.494, the “Emission ratio of 528/485” value (LHGFR0N3C [2]; L-2-HG concentration 10, in the absence of D-2-HG, Suppl. Fig. 9e) was 1.597 and 1.623 and 1.644 and the “Emission ratio of 528/485” value (LHGFR0N3C [2]; L-2-HG concentration 10, in the presence of D-2-HG, Suppl. Fig. 9e) was 1.611 and 1.627 and 1.593. The “Emission ratio of 528/485” value (LHGFR0N3C [2]; L-2-HG concentration 20, in the absence of 2-KG, Suppl. Fig. 9g) was 1.741 and 1.744 and 1.757, the “Emission ratio of 528/485” value (LHGFR0N3C [2]; L-2-HG concentration 20, in the absence of D-2-HG, Suppl. Fig. 9e) was 1.77 and 1.748 and 1.778 and the “Emission ratio of 528/485” value (LHGFR0N3C [2]; L-2-HG concentration 20, in the presence of 2-KG, Suppl. Fig. 9g) was 1.682 and 1.691 and 1.6943. For the same compound, the “Emission ratio of 528/485” value (LHGFR0N3C [2]; L-2-HG concentration 20, in the presence of D-2-HG, Suppl. Fig. 9e) was 1.748 and 1.775 and 1.796, the “Emission ratio of 528/485” value (LHGFR0N3C [2]; L-2-HG concentration 100, in the absence of 2-KG, Suppl. Fig. 9g) was 1.995 and 2.046 and 2.033 and the “Emission ratio of 528/485” value (LHGFR0N3C [2]; L-2-HG concentration 100, in the absence of D-2-HG, Suppl. Fig. 9e) was 1.9389 and 1.983 and 2.002. The “Emission ratio of 528/485” value (LHGFR0N3C [2]; L-2-HG concentration 100, in the presence of 2-KG, Suppl. Fig. 9g) was 1.979 and 1.983 and 2.015, the “Emission ratio of 528/485” value (LHGFR0N3C [2]; L-2-HG concentration 100, in the presence of D-2-HG, Suppl. Fig. 9e) was 2.01 and 1.942 and 2.017 and the “Emission ratio of 528/485” value (LHGFR0N3C [2]; L-2-HG concentration 200, in the absence of 2-KG, Suppl. Fig. 9g) was 2.097 and 2.071 and 2.086. For the same compound, the “Emission ratio of 528/485” value (LHGFR0N3C [2]; L-2-HG concentration 200, in the absence of D-2-HG, Suppl. Fig. 9e) was 2.026 and 2.0171 and 2.117, the “Emission ratio of 528/485” value (LHGFR0N3C [2]; L-2-HG concentration 200, in the presence of 2-KG, Suppl. Fig. 9g) was 2.058 and 2.06 and 2.089 and the “Emission ratio of 528/485” value (LHGFR0N3C [2]; L-2-HG concentration 200, in the presence of D-2-HG, Suppl. Fig. 9e) was 2.039 and 1.978 and 2.053. For the same compound, the “Emission ratio of 528/485” value (LHGFR0N3C [2]; L-2-HG concentration 1000, in the absence of 2-KG, Suppl. Fig. 9g) was 2.1941 and 2.174 and 2.177, the “Emission ratio of 528/485” value (LHGFR0N3C [2]; L-2-HG concentration 1000, in the absence of D-2-HG, Suppl. Fig. 9e) was 2.163 and 2.184 and 2.199 and the “Emission ratio of 528/485” value (LHGFR0N3C [2]; L-2-HG concentration 1000, in the presence of 2-KG, Suppl. Fig. 9g) was 2.1301 and 2.167 and 2.163. The “Emission ratio of 528/485” value (LHGFR0N3C [2]; L-2-HG concentration 1000, in the presence of D-2-HG, Suppl. Fig. 9e) was 2.202 and 2.174 and 2.19, the “Emission ratio of 528/485” value (LHGFR0N3C [2]; L-2-HG concentration 2000, in the absence of 2-KG, Suppl. Fig. 9g) was 2.149 and 2.166 and 2.182 and the “Emission ratio of 528/485” value (LHGFR0N3C [2]; L-2-HG concentration 2000, in the absence of D-2-HG, Suppl. Fig. 9e) was 2.176 and 2.24 and 2.201. For the same compound, the “Emission ratio of 528/485” value (LHGFR0N3C [2]; L-2-HG concentration 2000, in the presence of 2-KG, Suppl. Fig. 9g) was 2.154 and 2.1518 and 2.167, the “Emission ratio of 528/485” value (LHGFR0N3C [2]; L-2-HG concentration 2000, in the presence of D-2-HG, Suppl. Fig. 9e) was 2.195 and 2.175 and 2.2011 and the Emission ratio (LHGFR0N3C [2]; Suppl. Fig. 9a, L-2-HG alone or with the compound, three replicates) was 2.053 and 2.0953 and 2.06. For the same compound, the Emission ratio (LHGFR0N3C [3]) was 2.0582 and 2.052 and 2.059, the LhgO activity (LhgO; crude extract of DcsiRDcsiDDlhgO-pME6032-F2-lhgR-F1-lhgO grown with the compound as sole carbon source) was 0.02147 and 0.02016 and 0.02474 and the LhgO activity (LhgO; crude extract of DcsiRDcsiDDlhgO-pME6032 grown with the compound as sole carbon source) was 0.00119 and 0.00104 and 0.00167. For the same compound, the LhgO activity (LhgO; crude extract of DcsiRDlhgO-pME6032-F2-lhgR-F1-lhgO grown with the compound as sole carbon source) was 0.02241 and 0.0245 and 0.02829.
